How the values were obtained:
C57BL/6J mice = assay: In vivo IFNγ activation and iNKT cell expansion in C57BL/6J mice; parameters: species or system mouse; details: 2 μg I.P.; for Naïve Mouse In Vivo IFNγ: average serum IFNγ by ELISA, twenty hours post-injection, eight weeks old C57BL/6J mice; for Naïve Mouse In Vivo CD3 + iNKT + cells (Fold increase over veh control): iNKT cells within splenocytes by flow cytometry, four days post-injection, C57BL/6J mice
Procedure: Any of the compounds provided herein may be used in this example, including the exemplary compounds of Tables 1 and 2. To determine the expansion induced by the compounds described herein, test compounds were injected into C57BL/6J mice. Serum IFNγ levels and the expansion of iNKT cells within splenocytes was measured 4 days post-IP injection.
Eight weeks old C57BL/6J mice were injected (I.P.) with 2 μg of test compounds. The test compounds were either dissolved in DMSO at a 5 mg/mL stock solution, or formulated into liposomes through thin-film rehydration, then extrusion through 200 nm filters. Liposome-based formulations were constructed using soy phosphatidylcholine, cholesterol, and test compound in a 2:1:0.15 ratio. Twenty hours post-injection, blood was collected from the tail to measure the level of serum IFNγ using an ELISA kit from Biolegend. Four days post-injection, the mice were sacrificed and the splenocytes were isolated. The percentage of iNKT cells within the spleens was measured using flow cytometry, selecting for live cells and mouse CD1d-α-GalCer tetramer+ cells.
In response to injection of several exemplary compounds, the average serum IFNγ collected and fold change of cells are shown in Table B4 below.

human iTCR = biological target: T1, human iTCR (Homo sapiens, UniProt P15813); assay: In vitro activation of human iTCR through a Jurkat reporter cell line (JiNKT, GFP under NFKB promoter) co-cultured with compound-loaded BWSTIM cells; format: cell-based; details: percentage of JiNKT cells expressing high levels of GFP by flow cytometry; BWSTIM loaded 4 hours, co-cultured 18 to 24 hours
T1 sequence (P15813 1-335): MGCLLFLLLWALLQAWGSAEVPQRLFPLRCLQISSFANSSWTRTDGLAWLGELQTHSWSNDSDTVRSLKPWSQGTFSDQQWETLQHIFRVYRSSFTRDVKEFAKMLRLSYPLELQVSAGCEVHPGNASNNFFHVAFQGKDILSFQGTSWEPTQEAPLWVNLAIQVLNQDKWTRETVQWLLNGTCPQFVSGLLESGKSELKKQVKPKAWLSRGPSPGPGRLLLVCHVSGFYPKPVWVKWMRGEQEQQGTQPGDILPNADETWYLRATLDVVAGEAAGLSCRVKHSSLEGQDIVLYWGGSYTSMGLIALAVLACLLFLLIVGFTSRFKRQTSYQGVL
Description: To determine the human iTCR activation potential induced by the compounds described herein, a Jurkat cell line (JiNKT) was transfected with the human iTCR, and GFP under the NFKB promoter (cell line licensed from the Medical University of Vienna). A BWS147 cell line (BWSTIM) was also transfected with CD80 and CD1d to act as the antigen-presenting cell.
Any of the compounds provided herein may be used in this example, including the exemplary compounds of Tables 1 and 2. Test compounds were dissolved in DMSO at a 5 mg/mL stock solution. BWSTIM cells were loaded with test compounds at varying concentrations for 4 hours at 37° C. at a concentration of 20k cells/well in 200 μL of media in a u-bottom 96 well dish. BWSTIM cells were washed 2× with media, then incubated with JiNKT cells at a concentration of 80k cells/well in a u-bottom 96 well dish. Cells were co-cultured for 18 to 24 hours. The percentage of cells expressing high levels of GFP was measured through flow cytometry (after gating out the mCD45+ BWSTIM cells).

| Structure (SMILES) | Naïve Mouse In Vivo IFNγ (C57BL/6J mice) [pg/mL] | Naïve Mouse In Vivo CD3 + iNKT + cells (Fold increase over veh control) (C57BL/6J mice) | EC50 (human iTCR) [nM] |
| --- | --- | --- | --- |
| CCCCCCCCCCCCCCC[C@@H](O)[C@H](CO[C@H]1O[C@H](CO)[C@H](O)[C@H](O)[C@H]1O)NC(=O)CCCCCCCCCCCCCCCCCCCCCCCC12CC(F)(C1)C2 [Compound I-2, 24-(3-fluorobicyclo[1.1.1]pentan-1-yl)-N-((2S,3R)-3-hydroxy-1-(((2S,3R,4S,5R,6R)-3,4,5-trihydroxy-6-(hydroxymethyl)tetrahydro-2H-pyran-2-yl)oxy)octadecan-2-yl)tetracosanamide] | 8128 ± 1209 | 2.21 ± 0.38 Fold increase over veh control | 1780 |
| CCCCCCCCCCCCCC[C@@H](O)[C@@H](O)[C@H](CO[C@H]1O[C@H](COC(=O)CCc2ccccc2)[C@H](O)[C@H](O)[C@H]1O)NC(=O)CCCCCCCCCCCCCCCCCCCCCCCC12CC(F)(C1)C2 [Compound I-3, ((2R,3R,4S,5R,6S)-6-(((2S,3S,4R)-2-(24-(3-fluorobicyclo[1.1.1]pentan-1-yl)tetracosanamido)-3,4-dihydroxyoctadecyl)oxy)-3,4,5-trihydroxytetrahydro-2H-pyran-2-yl)methyl 3-phenylpropanoate] | 8506 ± 790 | 1.12 ± 0.19 Fold increase over veh control | 908 |
| CCCCCCCCCCCCCCC[C@@H](O)[C@H](CC[C@H]1O[C@H](COC(=O)CCc2ccccc2)[C@H](O)[C@H](O)[C@H]1O)NC(=O)CCCCCCCCCCCCCCCCCCCCCCCC12CC(F)(C1)C2 [Compound I-4, ((2R,3R,4R,5R,6R)-6-((3S,4R)-3-(24-(3-fluorobicyclo[1.1.1]pentan-1-yl)tetracosanamido)-4-hydroxynonadecyl)-3,4,5-trihydroxytetrahydro-2H-pyran-2-yl)methyl 3-phenylpropanoate] | 28208 ± 4723 | 4.09 ± 0.78 Fold increase over veh control | 621 |
| CCCCCCCCCCCCCCC[C@@H](O)[C@H](CO[C@H]1O[C@H](COC(=O)CCc2ccccc2)[C@H](O)[C@H](O)[C@H]1O)NC(=O)CCCCCCCCCCCCCCCCCCCCCCCC1CCS(=O)(=O)CC1 [Compound I-6, ((2R,3R,4S,5R,6S)-6-(((2S,3R)-2-(24-(1,1-dioxidotetrahydro-2H-thiopyran-4-yl)tetracosanamido)-3-hydroxyoctadecyl)oxy)-3,4,5-trihydroxytetrahydro-2H-pyran-2-yl)methyl 3-phenylpropanoate] | 43930 ± 43396 | 1.89 ± 0.44 Fold increase over veh control | 797 |
| CCCCCCCCCCCCCC[C@@H](O)[C@@H](O)[C@H](CC[C@H]1O[C@H](CO)[C@H](O)[C@H](O)[C@H]1O)NC(=O)CCCCCCCCCCCCCCCCCCCCCCCC12CC(F)(C1)C2 [Compound I-7, N-((3S,4S,5R)-4,5-dihydroxy-1-((2R,3R,4R,5R,6R)-3,4,5-trihydroxy-6-(hydroxymethyl)tetrahydro-2H-pyran-2-yl)nonadecan-3-yl)-24-(3-fluorobicyclo[1.1.1]pentan-1-yl)tetracosanamide] |  |  | 1180 |
